Where two headings read alike, the source gives them in different places.
Columns and labels:
Type in all cases: cell-based
[1] = tested on: MOLM13 (acute monocytic leukemia) cells; test: Cell proliferation assay (ATPlite cell viability) in MOLM13 cells; details: for IC50: Homo sapiens
Description: 2000 cells were seeded in 50 μL of RPMI medium in each well of a white, solid bottomed 384-well plate. Plates were spun down briefly, and seeded cells were pinned with […] of the bifunctional compound at serial three-fold diluted concentrations using the JANUS® Liquid Handling Workstation. […] After compound treatment, 15 μL of 1:2 solution of ATPlite™ 1Step diluted in PBS was added to each well of the 384-well plates. Plates were put on a plate shaker for 1 minute and incubated at room temperature for 9 minutes, and the resulting luminescence signal was read using an EnVision® plate reader. Cell viability was calculated by normalizing luminescence signals of SMARC compound treated cells to that of vehicle treated cells.

[2] = tested on: MV411 (human myelomonocytic leukemia) cells; test: Cell proliferation assay (ATPlite cell viability) in MV411 cells; details: for IC50: Homo sapiens, MV4-11, 48 hours
Description: 2000 cells were seeded in 50 μL of RPMI medium in each well of a white, solid bottomed 384-well plate. Plates were spun down briefly, and seeded cells were pinned with […] of the bifunctional compound at serial three-fold diluted concentrations using the JANUS® Liquid Handling Workstation. Plates were incubated at 37° C. in 5% CO2 for the indicated treatment time (48 hours). After compound treatment, 15 μL of 1:2 solution of ATPlite™ 1Step diluted in PBS was added to each well of the 384-well plates. Plates were put on a plate shaker for 1 minute and incubated at room temperature for 9 minutes, and the resulting luminescence signal was read using an EnVision® plate reader. Cell viability was calculated by normalizing luminescence signals of SMARC compound treated cells to that of vehicle treated cells.

[3] = target: T1, SMARCA4 (BRG) (Homo sapiens, UniProt P51532); test: Cellular degradation of SMARCA4 in NOMO-1 cells (western blot); details: NOMO1 cells, low micromolar treatment, 24 hours, western blot FIG. 1A-1B
T1 construct: endogenous in cells; host or cells: NOMO-1 cells
Description: For each tested condition, 1 million cells were seeded into a well of a 6-well plate. After overnight incubation at 37° C. in 5% CO2, cells were treated with either DMSO or varying doses of the indicated bifunctional compound and put back into the incubator for the indicated treatment time. Treated cells were collected by transferring cell suspensions from 6-well plate wells into microcentrifuge tubes and spinning down samples at 3000 rpm for 3 minutes. Supernatant was discarded and all samples were washed with phosphate-buffered saline (PBS) to remove any remaining compound from the cells. Cells were lysed using radioimmunoprecipitation assay (RIPA) buffer and sonicated on ice for 3 seconds at 25% amplification and allowed to rest for 15-30 minutes. Lysates were then spun down at 15000 rpm for 10 minutes and supernatant was collected. Protein concentration was measured using the Pierce™ bicinchoninic acid (BCA) Protein Assay Kit from ThermoFisher Scientific according to the manufacturer's instructions. Equivalent amounts of protein were resolved by western blotting using 4-12% Bis-Tris NuPAGE™ gels (Thermo-Fisher Scientific) prior to transfer and overnight immunoblotting using primary antibodies to the proteins indicated. […]

[4] = MOLM-13, 48 hours, read-out: IC50 (μM) MOLM13-48h
[5] = MOLM-13, 72 h (starred values), read-out: IC50 (μM) MOLM13, *72 h

T1 sequence (P51532 whole entry): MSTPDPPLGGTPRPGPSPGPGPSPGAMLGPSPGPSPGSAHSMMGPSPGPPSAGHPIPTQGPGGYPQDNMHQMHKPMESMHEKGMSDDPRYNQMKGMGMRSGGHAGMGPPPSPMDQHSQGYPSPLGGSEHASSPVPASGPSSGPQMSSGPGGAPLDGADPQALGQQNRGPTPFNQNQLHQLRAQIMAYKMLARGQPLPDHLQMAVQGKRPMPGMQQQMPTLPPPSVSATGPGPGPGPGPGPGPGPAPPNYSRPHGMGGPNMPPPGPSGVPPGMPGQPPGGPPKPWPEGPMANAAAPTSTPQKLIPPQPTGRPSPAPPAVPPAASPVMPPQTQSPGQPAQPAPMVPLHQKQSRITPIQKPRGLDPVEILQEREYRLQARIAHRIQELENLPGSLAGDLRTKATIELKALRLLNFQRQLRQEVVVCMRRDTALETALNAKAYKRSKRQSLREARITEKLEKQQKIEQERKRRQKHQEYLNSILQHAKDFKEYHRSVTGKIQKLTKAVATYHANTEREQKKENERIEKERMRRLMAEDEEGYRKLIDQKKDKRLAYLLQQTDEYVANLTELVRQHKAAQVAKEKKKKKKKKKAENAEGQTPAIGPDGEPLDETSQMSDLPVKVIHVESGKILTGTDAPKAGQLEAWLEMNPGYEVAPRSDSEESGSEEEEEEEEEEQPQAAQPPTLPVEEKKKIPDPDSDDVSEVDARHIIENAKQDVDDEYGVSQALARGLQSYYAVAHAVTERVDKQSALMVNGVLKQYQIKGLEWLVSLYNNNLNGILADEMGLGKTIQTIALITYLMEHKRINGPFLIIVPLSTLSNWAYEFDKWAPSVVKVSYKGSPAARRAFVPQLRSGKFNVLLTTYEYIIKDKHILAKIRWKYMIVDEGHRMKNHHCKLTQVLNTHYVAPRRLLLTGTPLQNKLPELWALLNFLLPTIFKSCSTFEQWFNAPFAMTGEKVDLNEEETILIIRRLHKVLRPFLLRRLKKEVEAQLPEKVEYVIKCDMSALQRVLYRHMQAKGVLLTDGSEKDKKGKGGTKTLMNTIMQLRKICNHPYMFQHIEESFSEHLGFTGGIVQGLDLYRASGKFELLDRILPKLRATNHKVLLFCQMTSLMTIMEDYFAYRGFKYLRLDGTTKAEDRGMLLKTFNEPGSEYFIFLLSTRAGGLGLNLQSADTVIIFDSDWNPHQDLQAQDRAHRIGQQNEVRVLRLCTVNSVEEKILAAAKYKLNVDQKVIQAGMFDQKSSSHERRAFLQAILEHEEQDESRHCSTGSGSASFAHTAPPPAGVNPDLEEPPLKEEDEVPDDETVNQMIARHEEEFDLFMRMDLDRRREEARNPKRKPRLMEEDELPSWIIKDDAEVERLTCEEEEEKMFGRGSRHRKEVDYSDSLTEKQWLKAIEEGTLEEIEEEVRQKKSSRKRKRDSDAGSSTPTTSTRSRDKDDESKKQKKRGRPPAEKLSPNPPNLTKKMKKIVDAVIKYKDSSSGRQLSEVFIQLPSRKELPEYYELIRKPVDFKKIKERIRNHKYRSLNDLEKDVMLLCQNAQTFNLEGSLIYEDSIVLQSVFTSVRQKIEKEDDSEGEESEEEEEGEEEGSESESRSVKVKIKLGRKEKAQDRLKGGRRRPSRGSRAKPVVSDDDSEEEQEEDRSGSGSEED

Row | SMILES | IC50 [1, 4] | IC50 [2] | also measured
1 | O=C1CCC(N2C(=O)c3cccc(NCCCCNC(=O)c4cccc(C#Cc5cc(NC(=O)Nc6ccnc(Cl)c6)ccn5)c4)c3C2=O)C(=O)N1 (racemic) [Compound 19, 3-((4-(3-(2-chloropyridin-4-yl)ureido)pyridin-2-yl)ethynyl)-N-(4-((2-(2,6-dioxopiperidin-3-yl)-1,3-dioxoisoindolin-4-yl)amino)butyl)benzamide] | 0.0571 µM | 0.109 µM | IC50 (μM) MOLM13-48h ([1]; 48 hours): submicromolar; IC50 (μM) MV411-48h [2]: submicromolar
2 | O=C1CCC(N2C(=O)c3cccc(NCCCCNC(=O)c4cccc(CCc5cc(NC(=O)Nc6ccnc(Cl)c6)ccn5)c4)c3C2=O)C(=O)N1 (stereo not drawn) [Compound 5, 3-(2-(4-(3-(2-chloropyridin-4-yl)ureido)pyridin-2-yl)ethyl)-N-(4-((2-(2,6-dioxopiperidin-3-yl)-1,3-dioxoisoindolin-4-yl)amino)butyl)benzamide] |  |  | BRG (SMARCA4) degradation [3]: significantly degraded
3 | O=C1CCC(N2C(=O)c3cccc(NCCCCNC(=O)c4ccc(C#Cc5cc(NC(=O)Nc6ccnc(Cl)c6)ccn5)cc4)c3C2=O)C(=O)N1 (stereo not drawn) [Compound 6, 4-((4-(3-(2-chloropyridin-4-yl)ureido)pyridin-2-yl)ethynyl)-N-(4-((2-(2,6-dioxopiperidin-3-yl)-1,3-dioxoisoindolin-4-yl)amino)butyl)benzamide] |  |  | BRG (SMARCA4) degradation [3]: significantly degraded
4 | O=C1CCC(N2C(=O)c3cccc(NCCCCCCCCNC(=O)c4cccc(C#Cc5cc(NC(=O)Nc6ccnc(Cl)c6)ccn5)c4)c3C2=O)C(=O)N1 (stereo not drawn) [Compound 17] |  | 0.491 µM | IC50 [1, 5]: 0.566 µM
5 | O=C1CCC(N2C(=O)c3cccc(NCCOCCOCCNC(=O)c4cccc(C#Cc5cc(NC(=O)Nc6ccnc(Cl)c6)ccn5)c4)c3C2=O)C(=O)N1 (stereo not drawn) [Compound 18] |  | 0.109 µM | IC50 [1, 5]: 1.28 µM
6 | O=C1CCC(N2C(=O)c3ccc(NCCCCNC(=O)c4cccc(C#Cc5cc(NC(=O)Nc6ccnc(Cl)c6)ccn5)c4)cc3C2=O)C(=O)N1 (stereo not drawn) [Compound 21] | 0.0793 µM | 0.0102 µM | 
7 | O=C1CCC(N2C(=O)c3ccc(NCCOCCNC(=O)c4cccc(C#Cc5cc(NC(=O)Nc6ccnc(Cl)c6)ccn5)c4)cc3C2=O)C(=O)N1 (stereo not drawn) [Compound 22] | 0.253 µM | 0.037 µM | 
8 | O=C1CCC(N2C(=O)c3cccc(NCCNC(=O)c4cccc(C#Cc5cc(NC(=O)Nc6ccnc(Cl)c6)ccn5)c4)c3C2=O)C(=O)N1 (stereo not drawn) [Compound 23] | 6.18 µM | 21.7 µM | 
9 | O=C1CCC(N2C(=O)c3cccc(NCCCCCCNC(=O)c4cccc(C#Cc5cc(NC(=O)Nc6ccnc(Cl)c6)ccn5)c4)c3C2=O)C(=O)N1 (stereo not drawn) [Compound 24] | 0.344 µM | 0.0389 µM | 

Reference: patent publication US20250163024A1, “CHEMICAL TARGETING SWI/SNF RELATED, MATRIX ASSOCIATED, ACTIN DEPENDENT REGULATOR OF CHROMATIN, SUBFAMILY A, MEMBER 4 (SMARCA4) AND USE IN DIFFUSE INTRINSIC PONTINE GLIOMA (DIPG)” (DANA-FARBER CANCER INSTITUTE, INC., priority 2022, published 2025)
